Experimental data taken from US8080657B2, “Compounds of reverse turn mimetics and the use thereof” (Choongwae Pharma Corporation, priority 2008, dated 2011).

Test system: Wnt signaling
Test: TopFlash reporter gene bioassay in SW480 cells
Type: cell-based
Settings: Homo sapiens, SW480, TopFlash reporter gene assay, inhibition of Wnt signaling; read-out: RGA, IC50 (μM) TopF

SMILES | IC50 [µM]
C=CCN1CC(=O)N2[C@@H](Cc3ccc(O)cc3)C(=O)N(Cc3cccc(-c4ccc[nH]c4=O)c3)C[C@@H]2N1C(=O)NCc1ccccc1 [compound 156] | 12.2 ± 2.02
C=CCN1CC(=O)N2[C@@H](Cc3ccc(O)cc3)C(=O)N(Cc3cccc(OC)c3OCCN3CCCCC3)C[C@@H]2N1C(=O)NCc1ccccc1 [compound 173] | 2.26 ± 0.16
C=CCN1CC(=O)N2[C@@H](Cc3ccc(O)cc3)C(=O)N(Cc3csc4cc(NC(=O)NC)ccc34)C[C@@H]2N1C(=O)NCc1ccccc1 [compound 155] | 11.8 ± 1.61
C=CCN1CC(=O)N2[C@@H](Cc3ccc(O)cc3)C(=O)N(Cc3cc(C(C)(C)C)cc(C(C)(C)C)c3OC)C[C@@H]2N1C(=O)NCc1ccccc1 [compound 150] | 10.2 ± 1.55
C=CCN1CC(=O)N2[C@@H](Cc3ccc(O)cc3)C(=O)N(Cc3ccc([N+](=O)[O-])c(O)c3)C[C@@H]2N1C(=O)NCc1ccccc1 [compound 259] | 7.62 ± 1.89
C=CCN1CC(=O)N2[C@@H](Cc3ccc(O)cc3)C(=O)N(Cc3csc4c(N)cccc34)C[C@@H]2N1C(=O)NCc1ccccc1 [compound 206] | 3.18 ± 0.75
C=CCN1CC(=O)N2[C@@H](Cc3ccc(O)cc3)C(=O)N(Cc3cccc(-c4ccc(O)cc4)n3)C[C@@H]2N1C(=O)NCc1ccccc1 [compound 248] | 6.71 ± 1.57
C=CCN1CC(=O)N2[C@@H](Cc3ccc(O)cc3)C(=O)N(CC3=CS(=O)(=O)c4ccccc43)C[C@@H]2N1C(=O)NCc1ccccc1 [compound 263] | 9.09 ± 0.67
C=CCN1CC(=O)N2[C@@H](Cc3ccc(O)cc3)C(=O)N(Cc3csc4c([N+](=O)[O-])cccc34)C[C@@H]2N1C(=O)NCc1ccccc1 [compound 59] | 0.78 ± 0.15
C=CCN1CC(=O)N2[C@@H](Cc3ccc(O)cc3)C(=O)N(Cc3cccc(-c4cccc(C#N)c4)n3)C[C@@H]2N1C(=O)NCc1ccccc1 [compound 191] | 2.81 ± 0.52
C=CCN1CC(=O)N2[C@@H](Cc3ccc(O)cc3)C(=O)N(C/C=C/c3ccccc3)C[C@@H]2N1C(=O)NCc1ccccc1 [compound 149] | 10.1 ± 2.38
C=CCN1CC(=O)N2[C@@H](Cc3ccc(OS(=O)(=O)NC(=O)OCCN(C)C)cc3)C(=O)N(Cc3cccc4c(C(=O)C5CC5)c[nH]c34)C[C@@H]2N1C(=O)NCc1ccccc1 [compound 220] | 33.1 ± 4.07
C=CCN1CC(=O)N2[C@@H](Cc3ccc4[nH]ncc4c3)C(=O)N(Cc3cccc4scnc34)C[C@@H]2N1C(=O)NCc1ccccc1 (racemic) [compound 237] | 46.7 ± 6.13
C=CCN1CC(=O)N2[C@@H](Cc3ccc(O)cc3)C(=O)N(Cc3ccc(OCCCCC)cc3)C[C@@H]2N1C(=O)NCc1ccccc1 [compound 154] | 11.8 ± 0.9
C=CCN1CC(=O)N2[C@@H](CC3=CC(=O)NC3=O)C(=O)N(Cc3cccc4scnc34)C[C@@H]2N1C(=O)NCc1ccccc1 [compound 192] | 2.85 ± 0.79
C=CCN1CC(=O)N2[C@@H](Cc3ccc(O)cc3)C(=O)N(Cc3ccc(N)c([N+](=O)[O-])c3)C[C@@H]2N1C(=O)NCc1ccccc1 [compound 254] | 7.13 ± 1.35
C=CCN1CC(=O)N2[C@@H](Cc3ccc(O)cc3)C(=O)N(Cc3cc(C(C)(C)C)cc(C(C)(C)C)c3)C[C@@H]2N1C(=O)NCc1ccccc1 [compound 163] | 15.7 ± 1.87
C=CCN1CC(=O)N2[C@@H](Cc3ccc(O)cc3)C(=O)N(Cc3cccc(C(=O)NC)c3)C[C@@H]2N1C(=O)NCc1ccccc1 [compound 183] | 52.5 ± 0.32
C=CCN1CC(=O)N2[C@@H](Cc3ccc(O)cc3)C(=O)N(Cc3csc4ccc(N(Cc5ccccc5)Cc5ccccc5)cc34)C[C@@H]2N1C(=O)NCc1ccccc1 [compound 200] | 25.9 ± 4.72
C=CCN1CC(=O)N2[C@@H](Cc3ccc(O)cc3)C(=O)N(Cc3cccc(OC)c3OC)C[C@@H]2N1C(=O)NCc1ccccn1 [compound 262] | 8.48 ± 1.37
C=CCN1CC(=O)N2[C@@H](Cc3ccc(O)cc3)C(=O)N(Cc3cccc(C(=O)N4CC=CC4)c3)C[C@@H]2N1C(=O)NCc1ccccc1 [compound 239] | 5.09 ± 1.32
C=CCN1CC(=O)N2[C@@H](Cc3ccc(O)cc3)C(=O)N(Cc3cccc(C(=O)NC)c3[N+](=O)[O-])C[C@@H]2N1C(=O)NCc1ccccc1 [compound 258] | 7.51 ± 2.1

Other lines, results leading:

IC50 [µM] | SMILES
2.07 ± 0.43 | C=CCN1CC(=O)N2[C@@H](Cc3ccc(O)cc3)C(=O)N(Cc3ccccc3S(=O)(=O)c3ccc(Cl)cc3)C[C@@H]2N1C(=O)NCc1ccccc1 [compound 170]
1.92 ± 0.28 | C=CCN1CC(=O)N2[C@@H](Cc3ccc(O)cc3)C(=O)N(Cc3csc4cc(NC(C)=O)ccc34)C[C@@H]2N1C(=O)NCc1ccccc1 [compound 142]
1.73 ± 0.35 | C=CCN1CC(=O)N2[C@@H](Cc3ccc(O)cc3)C(=O)N(Cc3cccc(-c4ccc(OC)cc4)n3)C[C@@H]2N1C(=O)NCc1ccccc1 [compound 134]
1.66 ± 0.18 | C=CCN1CC(=O)N2[C@@H](Cc3ccc(O)cc3)C(=O)N(Cc3cccc(C(=O)NCCC4=CCCCC4)c3)C[C@@H]2N1C(=O)NCc1ccccc1 [compound 130]
1.41 ± 0.38 | C=CCN1CC(=O)N2[C@@H](Cc3ccc(O)cc3)C(=O)N(Cc3cccc(N(C)C=O)c3)C[C@@H]2N1C(=O)NCc1ccccc1 [compound 113]
1.31 ± 0.33 | C=CCN1CC(=O)N2[C@@H](Cc3ccc(O)cc3)C(=O)N(Cc3cccnc3C3CC3)C[C@@H]2N1C(=O)NCc1ccccc1 [compound 108]
1.25 ± 0.21 | C=CCN1CC(=O)N2[C@@H](Cc3ccc(O)cc3)C(=O)N(Cc3cccc(NC(C)=O)c3)C[C@@H]2N1C(=O)NCc1ccccc1 [compound 102]
1.21 ± 0.14 | C=CCN1CC(=O)N2[C@@H](Cc3ccc(O)cc3)C(=O)N(Cc3csc4ccc(N)cc34)C[C@@H]2N1C(=O)NCc1ccccc1 [compound 100]
1.11 ± 0.25 | C=CCN1CC(=O)N2[C@@H](Cc3ccc(O)cc3)C(=O)N(Cc3ccccc3N3CCCC3)C[C@@H]2N1C(=O)NCc1ccccc1 [compound 96]
0.9 ± 0.08 | C=CCN1CC(=O)N2[C@@H](Cc3ccc(O)cc3)C(=O)N(Cc3cccc4c3ncn4CCC)C[C@@H]2N1C(=O)NCc1ccccc1 [compound 71]
0.87 ± 0.32 | C=CCN1CC(=O)N2[C@@H](Cc3ccc(O)cc3)C(=O)N(Cc3ccc(F)c(C#N)c3)C[C@@H]2N1C(=O)NCc1ccccc1 [compound 69]
0.83 ± 0.22 | C=CCN1CC(=O)N2[C@@H](Cc3ccc(O)cc3)C(=O)N(Cc3cccc4cc[nH]c34)C[C@@H]2N1C(=O)NCc1ccccc1 [compound 65]
0.82 ± 0.33 | C=CCN1CC(=O)N2[C@@H](Cc3ccc(O)cc3)C(=O)N(Cc3cccc4ccn(S(=O)(=O)c5ccc(C)cc5)c34)C[C@@H]2N1C(=O)NCc1ccccc1 [compound 64]
0.76 ± 0.12 | C=CCN1CC(=O)N2[C@@H](Cc3ccc(O)cc3)C(=O)N(Cc3cccc(NC=O)c3)C[C@@H]2N1C(=O)NCc1ccccc1 [compound 57]
0.74 ± 1.46 | C=CCN1CC(=O)N2[C@@H](Cc3ccc(O)cc3)C(=O)N(Cc3cccc(C(=O)NCc4ccccc4)c3)C[C@@H]2N1C(=O)NCc1ccccc1 [compound 56]
0.73 ± 0.03 | C=CCN1CC(=O)N2[C@@H](Cc3ccc(O)cc3)C(=O)N(Cc3cccc(C(=O)NCc4cccs4)c3)C[C@@H]2N1C(=O)NCc1ccccc1 [compound 53]
0.72 ± 0.15 | C=CCN1CC(=O)N2[C@@H](Cc3ccc(O)cc3)C(=O)N(Cc3csc4cc(NCCC(C)(C)C)ccc34)C[C@@H]2N1C(=O)NCc1ccccc1 [compound 51]
0.69 ± 0.19 | C=CCN1CC(=O)N2[C@@H](Cc3ccc(O)cc3)C(=O)N(Cc3cccc4c3ccn4S(=O)(=O)c3ccc(C)cc3)C[C@@H]2N1C(=O)NCc1ccccc1 [compound 47]
0.56 ± 0.07 | C=CCN1CC(=O)N2[C@@H](Cc3ccc(O)cc3)C(=O)N(Cc3csc4ccc([N+](=O)[O-])cc34)C[C@@H]2N1C(=O)NCc1ccccc1 [compound 32]
0.54 ± 0.06 | C=CCN1CC(=O)N2[C@@H](Cc3ccc(O)cc3)C(=O)N(Cc3ccccc3[N+](=O)[O-])C[C@@H]2N1C(=O)NCc1ccccc1 [compound 30]
0.52 ± 0.04 | C=CCN1CC(=O)N2[C@@H](Cc3ccc(O)cc3)C(=O)N(Cc3cccc(C(=O)NCC4CC4)c3)C[C@@H]2N1C(=O)NCc1ccccc1 [compound 25]
0.43 ± 0.1 | C=CCN1CC(=O)N2[C@@H](Cc3ccc(O)cc3)C(=O)N(Cc3cccc4ccn(S(=O)(=O)c5ccc(Cl)cc5)c34)C[C@@H]2N1C(=O)NCc1ccccc1 [compound 20]
0.42 ± 0.12 | C=CCN1CC(=O)N2[C@@H](Cc3ccc(O)cc3)C(=O)N(Cc3cccc(-c4cccc(NC(C)=O)c4)c3)C[C@@H]2N1C(=O)NCc1ccccc1 [compound 18]
0.31 ± 0.09 | C=CCN1CC(=O)N2[C@@H](Cc3ccc(O)cc3)C(=O)N(Cc3cccc4c(C#N)cn(S(=O)(=O)c5ccccc5)c34)C[C@@H]2N1C(=O)NCc1ccccc1 [compound 11]
0.3 ± 0.06 | C=CCN1CC(=O)N2[C@@H](Cc3ccc(O)cc3)C(=O)N(Cc3cccc4c(-c5ccccc5)c[nH]c34)C[C@@H]2N1C(=O)NCc1ccccc1 [compound 10]
0.18 ± 0.076 | C=CCN1CC(=O)N2[C@@H](Cc3ccc(O)cc3)C(=O)N(Cc3cccc4c(C(C)=O)cn(S(=O)(=O)c5ccc(Cl)cc5)c34)C[C@@H]2N1C(=O)NCc1ccccc1 [compound 6]
0.14 ± 0.025 | C=CCN1CC(=O)N2[C@@H](Cc3ccc(O)cc3)C(=O)N(Cc3cccc4c(C(=O)C5CC5)c[nH]c34)C[C@@H]2N1C(=O)NCc1ccccc1 [compound 4]

Same assay, conditions: Homo sapiens, SW480; read-out: RGA, IC50 (μM) TopF

SMILES | IC50 [µM]
C=CCN1CC(=O)N2[C@@H](Cc3ccc(OP(=O)(O)O)cc3)C(=O)N(Cc3cccc(N4CCCC4=O)c3)C[C@@H]2N1C(=O)NCc1ccccc1 [compound 94] | 1.09 ± 0.16
C=CCN1CC(=O)N2[C@@H](Cc3ccc(OP(=O)(O)O)cc3)C(=O)N(Cc3cccc(OCCN4CCOCC4)c3)C[C@@H]2N1C(=O)NCc1ccccc1 [compound 172] | 2.21 ± 0.35
C=CCN1CC(=O)N2[C@@H](Cc3ccc(OP(=O)(O)O)cc3)C(=O)N(Cc3cccc(OC)c3OC)C[C@@H]2N1C(=O)NCc1ccccc1 [compound 31] | 0.54 ± 0.08
C=CCOc1c(CN2C[C@H]3N(C(=O)CN(CC=C)N3C(=O)NCc3ccccc3)[C@@H](Cc3ccc(O)cc3)C2=O)cccc1OC [compound 90] | 1.03 ± 0.16

Same assay, conditions: TopFlash reporter gene assay, inhibition of Wnt signaling; read-out: RGA, IC50 (μM) TopF

IC50 [µM] | SMILES
2.1 ± 0.34 | C=CCN1CC(=O)N2[C@@H](Cc3ccc(O)cc3)C(=O)N(Cc3ccc(F)c4scnc34)C[C@@H]2N1C(=O)NCc1cccs1 [compound 171]
